ChEMBL document CHEMBL4699525, “Design and synthesis of new indanol-1,2,3-triazole derivatives as potent antitubercular and antimicrobial agents” (Bioorg Med Chem Lett, 2020)
Converted amounts (≈) assume the structure as drawn. The source made the active and inactive calls. No cut-off for these calls is given here.

Key:
Saccharomyces cerevisiae [1] = assay: Antifungal activity against Saccharomyces cerevisiae assessed as inhibition of […] growth incubated for overnight by CLSI based method; type: functional
Saccharomyces cerevisiae [2] = assay: Antifungal activity against Saccharomyces cerevisiae assessed as inhibition of fungal growth incubated for 24 hrs by agar well diffusion method; type: functional
Aspergillus niger [3] = assay: Antifungal activity against Aspergillus niger assessed as inhibition of fungal growth incubated for 24 hrs by agar well diffusion method; type: functional
Candida albicans [4] = assay: Antifungal activity against Candida albicans assessed as inhibition of […] growth incubated for overnight by CLSI based method; type: functional
Aspergillus niger [5] = assay: Antifungal activity against Aspergillus niger assessed as inhibition of […] growth incubated for overnight by CLSI based method; type: functional
Candida albicans [6] = assay: Antifungal activity against Candida albicans assessed as inhibition of fungal growth incubated for 24 hrs by agar well diffusion method; type: functional
Escherichia coli = assay: Antibacterial activity against Escherichia coli assessed as inhibition of bacterial growth incubated for 24 hrs by agar well diffusion method; type: functional
Bacillus subtilis = assay: Antibacterial activity against Bacillus subtilis assessed as inhibition of bacterial growth incubated for 24 hrs by agar well diffusion method; type: functional
[7] = biological target: T1, Enoyl-[acyl-carrier-protein] reductase [NADH] (Mycobacterium tuberculosis) (UniProt P9WGR1); assay: Inhibition of InhA in Mycobacterium tuberculosis H37Rv assessed antitubercular activity by measuring inhibition of bacterial growth incubated for 7 days by MABA assay; details: time 7.0 day
T1 sequence (whole entry): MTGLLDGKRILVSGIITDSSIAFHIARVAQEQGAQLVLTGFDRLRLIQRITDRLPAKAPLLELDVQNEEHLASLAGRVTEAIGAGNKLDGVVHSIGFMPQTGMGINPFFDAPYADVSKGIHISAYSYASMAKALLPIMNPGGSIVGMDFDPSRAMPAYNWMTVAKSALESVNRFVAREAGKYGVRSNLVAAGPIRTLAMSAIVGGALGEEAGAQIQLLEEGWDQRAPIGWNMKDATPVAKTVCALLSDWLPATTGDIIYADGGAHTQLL

Klebsiella aerogenes [8] = assay: Antibacterial activity against Enterobacter aerogenes assessed as inhibition of bacterial growth incubated for overnight by CLSI based method; type: functional
Salmonella typhi = assay: Antibacterial activity against Salmonella typhi assessed as inhibition of bacterial growth incubated for 24 hrs by agar well diffusion method; type: functional, Salmonella enterica subsp. enterica serovar Typhi
Staphylococcus aureus [9] = assay: Antibacterial activity against Staphylococcus aureus assessed as inhibition of bacterial growth incubated for 24 hrs by agar well diffusion method; type: functional
[10] = tested on: Salmonella enterica subsp. enterica serovar Abony; assay: Antibacterial activity against Salmonella abony assessed as inhibition of bacterial growth incubated for 24 hrs by agar well diffusion method; type: functional
Pseudomonas aeruginosa = assay: Antibacterial activity against Pseudomonas aeruginosa assessed as inhibition of bacterial growth incubated for 24 hrs by agar well diffusion method; type: functional
Shigella boydii [11] = assay: Antibacterial activity against Shigella boydii assessed as inhibition of bacterial growth incubated for 24 hrs by agar well diffusion method; type: functional
Bacillus cereus = assay: Antibacterial activity against Bacillus cereus assessed as inhibition of bacterial growth incubated for 24 hrs by agar well diffusion method; type: functional
Klebsiella aerogenes [12] = assay: Antibacterial activity against Enterobacter aerogenes assessed as inhibition of bacterial growth incubated for 24 hrs by agar well diffusion method; type: functional
Shigella boydii [13] = assay: Antibacterial activity against Shigella boydii assessed as inhibition of bacterial growth incubated for overnight by CLSI based method; type: functional
Staphylococcus aureus [14] = assay: Antibacterial activity against Staphylococcus aureus assessed as inhibition of bacterial growth incubated for overnight by CLSI based method; type: functional
[15] = Cytotoxicity against human HEK293 cells assessed as inhibition of cell growth at 25 uM incubated for 48 hrs by MTT assay; type: cell-based

Compound	MIC (Saccharomyces cerevisiae [1]) [µg/mL]	diameter of the inhibition zone (DIZ) (Saccharomyces cerevisiae [2]) [mm]	diameter of the inhibition zone (DIZ) (Aspergillus niger [3])	MIC (Candida albicans [4]) [µg/mL]	MIC (Aspergillus niger [5]) [µg/mL]	diameter of the inhibition zone (DIZ) (Candida albicans [6]) [mm]	diameter of the inhibition zone (DIZ) (Escherichia coli)	diameter of the inhibition zone (DIZ) (Bacillus subtilis)	MIC [7] [µM]	MIC (Klebsiella aerogenes [8]) [µg/mL]	diameter of the inhibition zone (DIZ) (Salmonella typhi) [mm]	diameter of the inhibition zone (DIZ) (Staphylococcus aureus [9]) [mm]	diameter of the inhibition zone (DIZ) [10]	diameter of the inhibition zone (DIZ) (Pseudomonas aeruginosa)	diameter of the inhibition zone (DIZ) (Shigella boydii [11])	diameter of the inhibition zone (DIZ) (Bacillus cereus)	diameter of the inhibition zone (DIZ) (Klebsiella aerogenes [12])	MIC (Shigella boydii [13]) [µg/mL]	MIC (Staphylococcus aureus [14]) [µg/mL]	other results
OC(Cn1cncn1)(Cn1cncn1)c1ccc(F)cc1F [FLUCONAZOLE]	12 (≈ 39.2 µM)	30	30 mm	25 (≈ 81.6 µM)	8 (≈ 26.1 µM)	30	–	–	–	–	–	–	–	–	–	–	–	–	–	–
O=C(Cn1cc(COc2ccc3c(c2)CCC3)nn1)Nc1cccc([N+](=O)[O-])c1	135 (≈ 343 µM)	9	5 mm	150 (≈ 381 µM)	220 (≈ 559 µM)	10	10 mm	11 mm	> 25	145 (≈ 369 µM)	10	10	10 mm	6 mm	10 mm	12 mm	10 mm	140 (≈ 356 µM)	140 (≈ 356 µM)	–
O=C(Cn1cc(COc2ccc3c(c2)CCC3)nn1)Nc1cccc(Cl)c1	230 (≈ 601 µM)	5	8 mm	165 (≈ 431 µM)	190 (≈ 496 µM)	10	13 mm	12 mm	> 25	110 (≈ 287 µM)	13	10	7 mm	9 mm	11 mm	10 mm	12 mm	140 (≈ 366 µM)	135 (≈ 353 µM)	–
COc1ccccc1NC(=O)Cn1cc(COc2ccc3c(c2)CCC3)nn1	210 (≈ 555 µM)	10	10 mm	180 (≈ 476 µM)	170 (≈ 449 µM)	12	10 mm	10 mm	6.25 (≈ 2.37 µg/mL)	95 (≈ 251 µM)	12	12	11 mm	8 mm	12 mm	–	13 mm	150 (≈ 396 µM)	120 (≈ 317 µM)	inhibition at 48 h, 25 µM [15]: 23.4%
CN(C)[C@@H]1C(O)=C(C(N)=O)C(=O)[C@@]2(O)C(O)=C3C(=O)c4c(O)cccc4[C@@](C)(O)[C@H]3C[C@@H]12 [TETRACYCLINE]	–	–	–	–	–	–	29 mm	32 mm	–	30 (≈ 67.5 µM)	33	29	32 mm	32 mm	34 mm	33 mm	33 mm	20 (≈ 45 µM)	20 (≈ 45 µM)	–
Fc1ccccc1-n1cc(COc2ccc3c(c2)CCC3)nn1	–	10	inactive	–	–	9	inactive	inactive	6.25 (≈ 1.93 µg/mL)	–	–	15	inactive	inactive	inactive	inactive	inactive	–	–	inhibition at 48 h, 25 µM [15]: 21%; diameter of the inhibition zone (DIZ) (Salmonella typhi; Salmonella enterica subsp. enterica serovar Typhi): inactive
O=[N+]([O-])c1cccc(-n2cc(COc3ccc4c(c3)CCC4)nn2)c1	180 (≈ 535 µM)	7	6 mm	125 (≈ 372 µM)	220 (≈ 654 µM)	12	12 mm	12 mm	> 25	70 (≈ 208 µM)	8	8	8 mm	11 mm	10 mm	13 mm	14 mm	90 (≈ 268 µM)	165 (≈ 491 µM)	–
Brc1cccc(-n2cc(COc3ccc4c(c3)CCC4)nn2)c1	160 (≈ 432 µM)	7	6 mm	100 (≈ 270 µM)	190 (≈ 513 µM)	14	15 mm	17 mm	> 25	150 (≈ 405 µM)	8	19	14 mm	14 mm	20 mm	10 mm	16 mm	130 (≈ 351 µM)	100 (≈ 270 µM)	–
O=C(Cn1cc(COc2ccc3c(c2)CCC3)nn1)Nc1ccccc1	110 (≈ 316 µM)	12	9 mm	85 (≈ 244 µM)	170 (≈ 488 µM)	13	11 mm	12 mm	> 25	80 (≈ 230 µM)	12	23	11 mm	10 mm	11 mm	12 mm	16 mm	130 (≈ 373 µM)	140 (≈ 402 µM)	–
